In patent publication US20240325424A1, “Pharmaceutical Compositions And Methods For Treating Neoplasia” (priority 2021, published 2024):
Converted amounts (≈) assume the structure as drawn.

Columns and labels:
Influenza A H1N1 = experiment: antiviral test Influenza A H1N1; format: cell-based; details: Influenza A virus
a virus = details: virus of Chan et al., 2013, p. 612; cited from earlier work
[1] = tested on: avian-origin influenza A (H7N9); details: cited from earlier work
Norovirus = Norovirus test; format: cell-based
[2] = tested on: pandemic flu H1/415, A/Hong Kong/415742/2009, A(H1N1)pdm09; details: To et al. (2016); cited from earlier work
RSV = experiment: antiviral test RSV; format: cell-based; details: human respiratory syncytial virus
[3] = tested on: seasonal influenza A(H3N2) virus; details: To et al. (2016); cited from earlier work

## COc1c(C)c2c(c(O)c1C/C=C(\C)CCC(=O)O)C(=O)OC2 [mycophenolic acid, 6-(4-hydroxy-6-methoxy-7-methyl-3-oxo-1,3-dihydroisobenzofuran-5-yl)-4-methyl-hex-4-enoic acid]
Influenza A H1N1
  EC50: < 0.1 µg/mL
A virus
  EC50: 0.17 µg/mL (≈ 0.531 µM)
[1]
  effectiveness against virus: effective
Norovirus
  EC50: 0.151 µg/mL (≈ 0.471 µM)
[2]
  effectiveness against virus: effective
RSV
  EC50: < 0.1 µg/mL
[3]
  effectiveness against virus: effective
